Where a name gives a salt, the structure may show the parent alone.
Tests used:
[1] = In vivo stain formation test on beagles (oral spray); parameters: species or system Beagle dogs
From the text: This treatment was continued daily for 7 weeks. […] Score results range from 0 to 4:
1 stain present covering one-fourth of tooth surface;
2 stain present covering one-half of tooth surface;
3 stain present covering three-fourths of tooth surface;
4 stain present covering entire tooth surface.
(§1) The animals used in these studies were registered Beagle dogs 6 to 8 months of age, weighing 8 to 10 kilos. The animals were kept in good health and had not received any treatment for at least three weeks prior to the start of a study. They were anaesthesized (Na-Nembutal 25-30 mgs/kg) and received a complete dental prophylaxis. Disclosing solution (TRACE, Erythrosine, Lorvic St. Louis, Mo. U.S.A.) was used to insure the complete removal of soft and hard dental deposits. The dogs receive this diet exclusively -- ground Purina Dog Chow soaked in water for at least two hours to form a soft mush. In addition, each animal receives approximately one-half can of ground beef (no chunks). No hard substances were permitted for the duration of the study. The animals were treated once daily with the test solutions (approx. 6 to 9 ml.) using a gentle spray over all surfaces of dentition. Treatments continued at least five days per week for the duration of the experiment. Each animal was examined weekly for plaque, and stain. Photographs were taken by the examining investigator immediately after the prophylaxis and at every examination. Before starting with the plaque study, the groups were balanced with respect to plaque formation.

[2] = In vivo plaque test on beagles (disclosing solution); parameters: species or system Beagle dogs; details: for PLAQUE Mean Score: Table II, score 1-4, 20 teeth per beagle, placebo 2.19, benzethonium chloride at .075%; for PLAQUE % Diff.: versus placebo, Signif. printed: 50/50 mixture N.S., 90% betaine 95%, Hibitane 95%, .075% benzethonium chloride 99%
From the text: as §1, with “The animals were kept in good health and had not received any treatment for at least three weeks prior to the start of a study.” left out

A. naeslundi = experiment: Minimum inhibitory concentration, test tube serial dilution test; format: cell-based, Actinomycetis naeslundii; details: Actinomyces naeslundii, Gram Positive
Procedure: (§2) The antimicrobial nature of the instant novel nontoxic compounds was shown by a standard test tube serial dilution test in which an appropriate number of test tubes of broth containing decreasing concentration of the test agent was innoculated with the test organism (0.1% in 95% ethyl alcohol). After a suitable period of incubation, the tubes were examined for the presence or absence of growth. The activity of the test agent was the lowest concentration which inhibited the growth of the organism and is expressed as the minimal inhibitory concentration in μgm/ml.

A. niger = experiment: as above; format: cell-based; details: Aspergillus niger, mold
Procedure: as §2

C. albicans = experiment: as above; format: cell-based; details: Candida albicans, yeast
Procedure: as §2

E. Coli = experiment: as above; format: cell-based; details: Escherichia coli, Gram Negative
Procedure: as §2

Ps. aeruginosa = experiment: as above; format: cell-based; details: Pseudomonas aeruginosa, Gram Negative
Procedure: as §2

Staphylococcus aureus = experiment: as above; format: cell-based; details: S. aureus, Gram Positive
Procedure: as §2

Strep. mutans = experiment: as above; format: cell-based; details: Streptococcus mutans, Gram Positive
Procedure: as §2

Strep. sanguis = experiment: as above; format: cell-based; details: Streptococcus, Gram Positive
Procedure: as §2

T. ment. = experiment: as above; format: cell-based, Trichophyton mentogrophytes; details: Trichophyton, mold
Procedure: as §2

bacteria = details: Stedman et al. 1953; cited from earlier work
micro-organisms [3] = experiment: Antimicrobial activity (general statements); format: cell-based
Procedure: as §2, with “μgm/ml. As shown in the following table of anitmicrobial data, the betaines of this invention are active against a variety of micro-organisms with maximum activity when the higher alkyl group has 14-16 carbons.” for “μgm/ml.”

micro-organisms [4] = details: reported by Swain et al. and Stedman et al.; cited from earlier work
[5] = Staining of teeth / oral surfaces (general statements); format: in vivo; details: under use conditions

SMILES | MIC (A. naeslundi) | MIC (A. niger) | MIC (C. albicans) | MIC (E. Coli) | MIC (Ps. aeruginosa) | MIC (Staphylococcus aureus) | MIC (Strep. mutans) | MIC (Strep. sanguis) | MIC (T. ment.) | other results
CC(C)(C)CC(C)(C)c1ccc(OCCOCC[N+](C)(C)Cc2ccccc2)cc1 [Benzethonium Chloride, benzethonium chloride] | – | – | – | – | – | – | – | – | – | Mean Stain Result ([1]; 0.1% aqueous solution, daily spray, 7 weeks, 10 dogs, score 0-4, deionized water 0.07): 0.59; increase in staining ([1]; 0.1% solution, 7 weeks, versus deionized water): 742%; No. of dogs w. Stain ([1]; Table II, dogs with stain/dogs tested, placebo 1/8, benzethonium chloride at .075%): 3/7; Mean Stain Score ([1]; Table II, score 0-4, placebo 0.388, benzethonium chloride at .075%): 0.53; PLAQUE Mean Score [2]: 1.80; PLAQUE % Diff. [2]: -25.0%
CCCCCCCCCCCC[N+](C)(C)CCCCCCCCCCC(=O)O [C12 H25 [RN^+ (CH3)2 (CH2)10 COOH] Pr^-] | 12.5 µg/mL | 50 µg/mL | 25 µg/mL | 100 µg/mL | 50 µg/mL | 6.25 µg/mL | 12.5 µg/mL | 12.5 µg/mL | 12.5 µg/mL | –
CCCCCCCCCCCCCC[N+](C)(C)CCCCCCCCCCC(=O)[O-] [C14 H29 RN^+ CH3)2 (CH2)10 COOH, N-(10-Carboxydecyl)-N, N-dimethyltetradecanaminium hydroxide, inner salt] | 0.39 µg/mL | 50 µg/mL | 3.12 µg/mL | 100 µg/mL | 100 µg/mL | 1.56 µg/mL | 1.56 µg/mL | 1.56 µg/mL | 0.78 µg/mL | –
CCCCCCCCCCCCCC[N+](C)(C)CCCCCCCCCCC(=O)O.[Br-] [C14 H29 [RN^+ (CH3)2 (CH2)10 COOH] Pr^-, tetradecyldimethyl(10-carboxydecyl)-ammonium bromide] | 0.39 µg/mL | 25 µg/mL | 3.12 µg/mL | 100 µg/mL | 50 µg/mL | 0.39 µg/mL | 1.56 µg/mL | 1.56 µg/mL | 3.12 µg/mL | –
CCCCCCCCCCCCCCCC[N+](C)(C)CC(=O)[O-] [C16 H33 N^+ (CH3)2 CH2 COO^-] | – | – | – | – | – | – | – | – | – | bactericidal activity relative to related non-betaine [C16 H33 N(CH3)2 CH2 C6 H5 ]Cl (bacteria): less than one-tenth
CCCCCCCCCCCCCCCC[N+](C)(C)CCCCCCCCCCC(=O)[O-] [C16 H33 RN^+ CH3)2 (CH2)10 COOH, N-(10-Carboxydecyl)-N,N-dimethylhexadecanaminium hydroxide, inner salt] | 0.78 µg/mL | 100 µg/mL | 3.12 µg/mL | 100 µg/mL | 100 µg/mL | 1.56 µg/mL | 1.56 µg/mL | 0.78 µg/mL | 1.56 µg/mL | antimicrobial activity (micro-organisms [3]): the activity is not diminished and is sufficient for the exhibition of useful antimicrobial and anti-plaque properties
CCCCCCCCCCCCCCCC[N+](C)(C)CCCCCCCCCCC(=O)O.[Br-] [C16 H33 [RN^+ (CH3)2 (CH2)10 COOH] Pr^-, Hexadecyldimethyl(10-carboxydecyl)ammonium bromide] | 0.78 µg/mL | 50 µg/mL | 3.12 µg/mL | 100 µg/mL | 50 µg/mL | 0.39 µg/mL | 1.56 µg/mL | 1.56 µg/mL | 12.5 µg/mL | antimicrobial properties (micro-organisms [4]): reported to have antimicrobial properties
[H]/N=C(\N/C(=N/[H])NCCCCCCNC(=N)NC(=N)Nc1ccc(Cl)cc1)Nc1ccc(Cl)cc1 [Hibitane, Chlorhexidine] | – | – | – | – | – | – | – | – | – | Mean Stain Score ([1]; dog, in vivo): 0.956; No. of dogs w. Stain ([1]; dog, in vivo): 8/8; degree of staining ([1]; dog, in vivo): significantly increased staining; PLAQUE Mean Score [2]: 1.32; PLAQUE % Diff. [2]: -39.7%; staining / discoloration [5]: noticeable discolorations

Source: patent US4130637A, “Anti-plaque agents” (Colgate-Palmolive Company, priority 1977, dated 1978)
